In US10143668B2, “Hydroxy-substituted amino and ammonium derivatives and their medical use” (GRI BIO, INC., priority 2011, dated 2018):

Test system: local lymph node reaction
Experiment: Local lymph node weight and cell count after TDI challenge
Conditions: topical, diflorasone 0.1% and 0.5%, 1a 2% or 6%
Description: Directly after sacrifice, the ear draining lymph node (Ln. auricularis) was prepared and excised. Organ weight was determined by means of an analytical balance (Kern, Balingen, Germany). Single cell suspensions were prepared by means of a glass potter (VWR, Darmstadt, Germany) and cells were counted with a hemocytometer (Neubauer, VWR, Germany).
One of the most undesirable side-effects of corticosteroid administration is immunosuppression, which leads to the inability to effectively address parasitic infection, wound healing and tumor growth. In the current study, the local lymph node reaction after TDI challenge (lymph node weight and cell number) was determined to assess the response of immune organs.

CCCCCCCCCCCCCC[N+](C)(C)CC(=O)N(C)C[C@H](O)[C@@H](O)[C@H](O)[C@H](O)CO [Compound 1a, N-(2-(Dimethyl(tetradecyl)ammonio)acetyl)-N-methyl-D-glucamine chloride]
local lymph node reaction (lymph node weight and cell number): only a modest effect
